What was measured:
[1] = system: erythropoietin (EPO); test: EPO expression in Kelly neuroblastoma cells; format: cell-based; settings: for EPO: conditioned media after overnight incubation
Description: (§1) The effect of compounds of the present invention on expression of cytoprotective and neuroprotective factors in neuroblastoma cells was evaluated as follows. Kelly neuroblastoma cells (see, e.g., DSMZ, cat# ACC-355, Braunschweig Germany) were treated with various compounds of the present invention or 1% DMSO (negative control). Following an overnight incubation, the conditioned media was collected from cell cultures and analyzed for erythropoietin (EPO) and vascular endothelial growth factor (VEGF) expression using a QUANTIKINE immunoassay (R&D Systems, Inc., Minneapolis Minn.) according to the manufacturer's instructions.

[2] = system: erythropoietin (EPO); test: EPO expression in Hep3B cells (QUANTIKINE immunoassay of conditioned media); format: cell-based, Human; settings: for Fold Increase Over Control: EPO, vs 1% DMSO control; for EPO: conditioned media after overnight incubation with compound
Description: The effect of compounds of the present invention on expression of cytoprotective and neuroprotective factors in cells was evaluated as follows. Human cells derived from hepatocarcinoma (Hep3B) tissue (see, e.g., American Type Culture Collection, Manassas Va.) were seeded into 35 mm culture dishes and grown at 37° C., 20% O2, 5% CO2 in Minimal Essential Medium (MEM), Earle's balanced salt solution (Mediatech Inc., Herndon Va.), 2 mM L-glutamine, 0.1 mM non-essential amino acids, 1 mM sodium pyruvate, and 10% FBS. When cell layers reached confluence, the media was replaced with OPTI-MEM media (Invitrogen Life Technologies, Carlsbad Calif.) and cell layers were incubated for approximately 24 hours in 20% O2, 5% CO2 at 37° C. Various compounds of the present invention or 1% DMSO (negative control) were then added to existing media and incubation was continued overnight.
Following incubation, the conditioned media was collected from cell cultures and analyzed for erythropoietin (EPO) expression using a QUANTIKINE immunoassay (R&D Systems, Inc., Minneapolis Minn.) according to the manufacturer's instructions.

[3] = system: vascular endothelial growth factor (VEGF); test: VEGF expression in Kelly neuroblastoma cells; format: cell-based; settings: for VEGF: conditioned media after overnight incubation
Description: as §1

[4] = system: VEGF; test: Plasma VEGF in mice after intravenous injection; format: in vivo, Swiss Webster mice; settings: mouse plasma, 20 mg/kg i.v., four hours after injection; for fold induction at 20 mg/kg: iv, 4 h, read-out: VEGF Fold Increase
Description: (§2) The effect of compounds of the present invention on expression of cytoprotective and neuroprotective factors in vivo was evaluated as follows. In one series of experiments, male Swiss Webster mice (29-34 g) were administered various compounds of the present invention via intravenous injection into the caudal tail vein. Animals treated by intravenous injection received a 6 ml/kg volume of either 5% Dextrose with an equimolar amount of NaOH or Meglumine (vehicle control) or 20 mg/kg of a compound of the present invention in 5% dextrose with an equimolar amount of NaOH or Meglumine. Four hours after injection, the animals were anesthetized and exsanguinated. Plasma samples were collected in EDTA and heparin coated microtainer tubes. Plasma samples were assayed for erythropoietin and VEGF using commercially-available ELISA kits purchased from R & D Systems (Minneapolis Minn.).

[5] = system: erythropoietin; test: Plasma EPO in mice after intravenous injection; format: in vivo, Swiss Webster mice; settings: mouse plasma, 20 mg/kg i.v., four hours after injection; for fold induction at 20 mg/kg: iv, 4 h, read-out: EPO Fold Increase; for EPO: mouse EPO ELISA kit (**)
Description: as §2

N#Cc1nc(C(=O)NCC(=O)O)c(O)c2sccc12 [Compound AH, [(4-Cyano-7-hydroxy-thieno[3,2-c]pyridine-6-carbonyl)-amino]-acetic acid]
EPO Fold Increase [1]: 11.95
EPO [1]: 225.8 mIU/ml
Fold Increase Over Control [2]: 7.1
EPO [2]: 13.4 mIU/ml
VEGF Fold Increase [3]: 4.5
VEGF [3]: 6590 pg/mL
fold induction at 20 mg/kg [4]: 1.76
VEGF [4]: 44 pg/mL
fold induction at 20 mg/kg [5]: 11.6
EPO [5]: 1242 pg/mL

O=C(O)CNC(=O)c1nc(-c2ccoc2)c2ccsc2c1O [Compound AI, [(4-Furan-3-yl-7-hydroxy-thieno[3,2-c]pyridine-6-carbonyl)-amino]-acetic acid]
EPO Fold Increase [1]: 17.02
EPO [1]: 321.6 mIU/ml
Fold Increase Over Control [2]: 6.1
EPO [2]: 7.9 mIU/ml
VEGF Fold Increase [3]: 4.8
VEGF [3]: 7003 pg/mL
fold induction at 20 mg/kg [4]: 0.91
VEGF [4]: 20 pg/mL
fold induction at 20 mg/kg [5]: 1.96
EPO [5]: 221 pg/mL

N#Cc1nc(C(=O)NCC(=O)O)c(O)c2ccc(Cc3ccccc3)cc12 [Compound AR, [(7-Benzyl-1-cyano-4-hydroxy-isoquinoline-3-carbonyl)-amino]-acetic acid]
EPO Fold Increase [1]: 32.17
EPO [1]: 842.9 mIU/ml
Fold Increase Over Control [2]: 21.8
EPO [2]: 82.7 mIU/ml
VEGF Fold Increase [3]: 10.8
VEGF [3]: 14745 pg/mL
fold induction at 20 mg/kg [4]: 0.83
VEGF [4]: 29 pg/mL
fold induction at 20 mg/kg [5]: 22.8
EPO [5]: 11000 pg/mL

O=C(O)CNC(=O)c1nc2ccc(Oc3ccccc3)cc2cc1O [Compound C, [(3-Hydroxy-6-phenoxy-quinoline-2-carbonyl)-amino]-acetic acid]
EPO Fold Increase [1]: 3.5
EPO [1]: 21.8 mIU/ml
Fold Increase Over Control [2]: 2.2
EPO [2]: 241.4 mIU/ml
VEGF Fold Increase [3]: 9.1
VEGF [3]: 1445.7 pg/mL

O=C(O)CNC(=O)c1ncc2c(-c3ccc(F)cc3)c(-c3ccc(F)cc3)sc2c1O [Compound AJ, {[2,3-Bis-(4-fluoro-phenyl)-7-hydroxy-thieno[3,2-c]pyridine-6-carbonyl]-amino}-acetic acid]
Fold Increase Over Control [2]: 42.8
EPO [2]: 62.9 mIU/ml
VEGF Fold Increase [3]: 3.0
VEGF [3]: 4102 pg/mL
fold induction at 20 mg/kg [4]: 1.16
VEGF [4]: 29 pg/mL
fold induction at 20 mg/kg [5]: 2.53
EPO [5]: 271 pg/mL

COc1cccc(Oc2cccc3c(O)c(C(=O)NCC(=O)O)nc(C#N)c23)c1 [Compound AP, {[1-Cyano-4-hydroxy-8-(3-methoxy-phenoxy)-isoquinoline-3-carbonyl]-amino}-acetic acid]
EPO Fold Increase [1]: 1.44
EPO [1]: 27.2 mIU/ml
Fold Increase Over Control [2]: 17.2
EPO [2]: 53.4 mIU/ml
VEGF Fold Increase [3]: 2.2
VEGF [3]: 3266 pg/mL
fold induction at 20 mg/kg [4]: 0.43
VEGF [4]: 27 pg/mL
fold induction at 20 mg/kg [5]: 20.1
EPO [5]: 3595 pg/mL

O=C(O)CNC(=O)c1nc(Cl)c2ccccc2c1O [Compound A, [(1-Chloro-4-hydroxy-isoquinoline-3-carbonyl)-amino]-acetic acid]
Fold Increase Over Control [2]: 13.6
EPO [2]: 18.3 mIU/ml

N#Cc1nc(C(=O)NCC(=O)O)c(O)c2ccc(Cl)cc12 [Compound S, [(7-Chloro-1-cyano-4-hydroxy-isoquinoline-3-carbonyl)-amino]-acetic acid]
EPO Fold Increase [1]: 2.89
EPO [1]: 40.4 mIU/ml
Fold Increase Over Control [2]: 10.1
EPO [2]: 12.5 mIU/ml
VEGF Fold Increase [3]: 1.9
VEGF [3]: 725 pg/mL
fold induction at 20 mg/kg [4]: 0.68
VEGF [4]: 15 pg/mL
fold induction at 20 mg/kg [5]: 40.8
EPO [5]: 460.6 pg/mL

Cc1nc(C(=O)NCC(=O)O)c(OCc2ccccc2)c2ccc(Oc3ccccc3)cc12 [Compound K, [(4-Benzyloxy-1-methyl-7-phenoxy-isoquinoline-3-carbonyl)-amino]-acetic acid]
Fold Increase Over Control [2]: 1.8
EPO [2]: 57.4 mIU/ml

Cc1nc(C(=O)NCC(=O)O)c(O)c2ccc(Oc3ccccc3)cc12 [Compound J, [(4-Hydroxy-1-methyl-7-phenoxy-isoquinoline-3-carbonyl)-amino]-acetic acid]
EPO [2]: 120.0 mIU/ml

O=C(O)CNC(=O)c1nc2cc(-c3ccc(Cl)cc3)sc2cc1O [Compound Q, {[2-(4-Chloro-phenyl)-6-hydroxy-thieno[3,2-b]pyridine-5-carbonyl]-amino}-acetic acid]
EPO Fold Increase [1]: 2.80
EPO [1]: 52.9 mIU/ml
Fold Increase Over Control [2]: 4.8
EPO [2]: 37.1 mIU/ml
VEGF Fold Increase [3]: 4.4
VEGF [3]: 6369 pg/mL
fold induction at 20 mg/kg [4]: 1.28
VEGF [4]: 50 pg/mL
fold induction at 20 mg/kg [5]: 1.61
EPO [5]: 17.1 pg/mL

Cc1cccc2c(Cl)nc(C(=O)NCC(=O)O)c(O)c12 [Compound D, [(1-Chloro-4-hydroxy-5-methyl-isoquinoline-3-carbonyl)-amino]-acetic acid]
Fold Increase Over Control [2]: 2.7
EPO [2]: 205.7 mIU/ml

O=C(O)CNC(=O)c1nc2cc(Cl)ccc2cc1O [Compound B, [(7-Chloro-3-hydroxy-quinoline-2-carbonyl)-amino]-acetic acid]
Fold Increase Over Control [2]: 9.8
EPO [2]: 14.2 mIU/ml

COc1ccc(Oc2ccc3c(Cl)nc(C(=O)NCC(=O)O)c(O)c3c2)cc1 [Compound H, {[1-Chloro-4-hydroxy-6-(4-methoxy-phenoxy)-isoquinoline-3-carbonyl]-amino}-acetic acid]
Fold Increase Over Control [2]: 5.4
EPO [2]: 84.0 mIU/ml

O=C(O)CNC(=O)c1nc(Sc2ccc(Cl)cc2)c2ccccc2c1O [Compound U, {[1-(4-Chloro-phenylsulfanyl)-4-hydroxy-isoquinoline-3-carbonyl]-amino}-acetic acid]
EPO Fold Increase [1]: 1.4
EPO [1]: 8.9 mIU/ml
VEGF Fold Increase [3]: 9.7
VEGF [3]: 1526.0 pg/mL

O=C(O)CNC(=O)c1ncc2cc(SC3CCCCC3)ccc2c1O [Compound V, [(7-Cyclohexylsulfanyl-4-hydroxy-isoquinoline-3-carbonyl)-amino]-acetic acid]
EPO Fold Increase [1]: 3.9
EPO [1]: 24.2 mIU/ml
VEGF Fold Increase [3]: 13.5
VEGF [3]: 2132.0 pg/mL

O=C(O)CNC(=O)c1nc(Br)c2cc(Br)sc2c1O [Compound AD, [(2,4-Dibromo-7-hydroxy-thieno[3,2-c]pyridine-6-carbonyl)-amino]-acetic acid]
EPO Fold Increase [1]: 7.3
EPO [1]: 138.2 mIU/ml
Fold Increase Over Control [2]: 6.5
EPO [2]: 34.9 mIU/ml
VEGF Fold Increase [3]: 3.5
VEGF [3]: 5123.0 pg/mL
fold induction at 20 mg/kg [4]: 2.54
VEGF [4]: 66 pg/mL
fold induction at 20 mg/kg [5]: 27.4
EPO [5]: 1997 pg/mL

N#Cc1nc(C(=O)NCC(=O)O)c(O)c2cccc(Oc3ccccc3)c12 [Compound W, [(1-Cyano-4-hydroxy-8-phenoxy-isoquinoline-3-carbonyl)-amino]-acetic acid]
EPO Fold Increase [1]: 11.35
EPO [1]: 214.6 mIU/ml
VEGF Fold Increase [3]: 5.0
VEGF [3]: 1846 pg/mL
fold induction at 20 mg/kg [4]: 1.38
VEGF [4]: 40 pg/mL
fold induction at 20 mg/kg [5]: 45.6
EPO [5]: 725.4 pg/mL

O=C(O)CNC(=O)c1nc2cc(Cl)ccc2c(-c2cccc(C(F)(F)F)c2)c1O [Compound AU, {[7-Chloro-3-hydroxy-4-(3-trifluoromethyl-phenyl)-quinoline-2-carbonyl]-amino}-acetic acid]
EPO Fold Increase [1]: 4.16
EPO [1]: 109.1 mIU/ml
Fold Increase Over Control [2]: 7.1
EPO [2]: 19.2 mIU/ml
VEGF Fold Increase [3]: 5.1
VEGF [3]: 6877 pg/mL

From US9775902B2, “Compounds and methods for treatment of stroke” (FIBROGEN, INC, priority 2006, dated 2017)
